The first test has as its system Plasmodium falciparum.
Assay: not given
The class given is functional, organism-based. The following applies: 552 h.
In general, IC50 refers to the concentration that gives 50% inhibition. Low readings indicate inhibition by little substance, high ones a need for much substance. `O=C1C(O)=C([C@H]2CC[C@H](c3ccc(Cl)cc3)CC2)C(=O)c2ccccc21` [ATOVAQUONE] registered an IC50 of 390 nM.

The test system of a further test is Plasmodium falciparum. The test can be described thus: microbe, parasite or virus in culture.
Conditions: not given
`CC1(C)N=C(N)N=C(N)N1c1ccc(Cl)cc1` [CYCLOGUANIL] had an IC50 of 250 nM.
The compound `CCCCN(CCCC)CC(O)c1cc(Cl)cc2c1-c1ccc(Cl)cc1/C2=C/c1ccc(Cl)cc1` (stereo unspecified) [LUMEFANTRINE] gave a concentration for half-maximal inhibition (IC50) of 15.2 nM.
`CCNCc1cc(Nc2ccnc3cc(Cl)ccc23)ccc1O` [DESETHYL AMODIAQUINE]: the IC50 turned out to be 30.5 nM.
In turn, `CCc1nc(N)nc(N)c1-c1ccc(Cl)cc1` [PYRIMETHAMINE] registered an IC50 of 2510 nM.
`OC(c1cc(C(F)(F)F)nc2c(C(F)(F)F)cccc12)C1CCCCN1` (stereo unspecified) [MEFLOQUINE] gave a concentration for half-maximal inhibition (IC50) of 34.1 nM.

For the origin of these results see ChEMBL document CHEMBL1275428, “First case of emergence of atovaquone-proguanil resistance in Plasmodium falciparum during treatment in a traveler in Comoros” (Antimicrob Agents Chemother, 2008).
